Test results as given in PMC7432809, “Antimicrobial Activity of Small Synthetic Peptides Based on the Marine Peptide Turgencin A: Prediction of Antimicrobial Peptide Sequences in a Natural Peptide and Strategy for Optimization of Potency” (International Journal of Molecular Sciences, 2020).
Where a SMILES comes first, the peptide text is derived from it. Bridges are numbered along the chain shown (N, C = ends).

Columns and labels:
Bacillus megaterium = assay: microbe, parasite or virus in culture; format: cell-based; conditions: Bacillus megaterium; MH medium, 24 h at 35 °C, OD 595 nm <10% of growth control; triplicates
Description: (§1) The synthesized peptides were screened for antibacterial activity against five strains of G+ bacteria: B. subtilis (Bs, ATCC 23857), C. glutamicum (Cg, ATCC 13032), S. aureus (Sa, ATCC 9144), Micrococcus luteus (Ml), B. megaterium (Bm) (the last two were obtained from professor Olaf B. Styrvold, UiT The Arctic University of Norway).
(§2) Two strains of G- bacteria, P. aeruginosa (Pa, ATCC 27853) and E. coli (Ec, ATCC 25922), were also used. Cultures stored at -80 °C in glycerol were transferred to Müller–Hinton plates (MH, Difco Laboratories, Detroit, MI, USA) and incubated for 24 h at 35 °C. Colonies of each strain were transferred to 5 mL liquid MH medium and left shaking (600 rpm) at room temperature overnight. An aliquot of actively growing bacteria (20 µL) was inoculated in 5 mL MH medium and left shaking for 2 h at room temperature. In order to have a sensitive bioassay, the bacterial cultures were diluted with medium to only 2.5–3 × 10^4 bacteria/mL and an aliquot of 50 µL was added to each well in 96 microwell plates (Thermo Fisher Scientific, Roskilde, Denmark) preloaded with peptide solution (50 µL). The antibacterial assays were performed as previously described. The microtiter plates were incubated for 24 h at 35 °C with optical density (595 nm) recorded every hour using an Envision 2103 multilabel reader, controlled by a Wallac Envision manager (PerkinElmer, Waltham, MA, USA). The minimum inhibitory concentration (MIC) was defined as the sample concentration showing an optical density less than 10% of the negative (growth) control, consisting of bacteria and MQ-H2O. Oxytetracycline (concentrations ranging from 20–0.02 µg/mL, Sigma-Aldrich) and indolicidin (concentration ranging from 200–0.2 µg/mL, Sigma-Aldrich) served as a positive (inhibition) control. The synthetic peptides were tested for antibacterial activity in concentrations ranging from 250 to 0.5 µg/mL in two-fold dilutions. All tests were performed in triplicates.

Micrococcus luteus = assay: microbe, parasite or virus in culture; format: cell-based; conditions: Micrococcus luteus; MH medium, 24 h at 35 °C, OD 595 nm <10% of growth control; triplicates
Description: as §1, §2

Aureobasidium pullulans = assay: microbe, parasite or virus in culture; format: cell-based; conditions: potato dextrose broth with 2% glucose, room temperature 48 h, OD 600 nm, >90% inhibition; triplicate
Description: (§3) StAMP-1–11 were screened for antifungal activity against C. albicans (Ca, ATCC 10231), A. pullulans (Ap) and Rhodotorula sp. (Rh) (the last two were obtained from professor Arne Tronsmo, The Norwegian University of Life Sciences, Ås, Norway). The antifungal assay was performed as previously described with a few modifications. Briefly, fungal spores were dissolved in potato dextrose broth (Difco Laboratories) with 2% D(+)-glucose (Merck, Darmstadt, Germany) to a concentration of 4 × 10^5 spores/mL. The spores (50 µL) were inoculated on 96 microwell plates (Thermo Fisher Scientific) containing the synthetic peptides (50 µL) and controls (water or antibiotic). The peptides were diluted in MQ-H2O at final concentrations ranging from 250–3.9 µg/mL in two-fold serial dilutions. Triclosan (Sigma-Aldrich, Steinheim, Germany) was used as a positive (antifungal) control (32–0.25 µg/mL), and MQ-H2O as a negative (growth) control. Cultures were grown in room temperature for 24 h (Ca) and 48 h (Ap and Rh). Growth inhibition was determined by measuring OD values at 600 nm by a microplate reader (Synergy H1 Hybrid Multi-Mode Reader, BioTek, Winooski, VT, USA). […] All experiments were done in triplicate.

[1] = tested on: Candida albicans (ATCC 10231); assay: microbe, parasite or virus in culture; format: cell-based; conditions: potato dextrose broth with 2% glucose, room temperature 24 h, OD 600 nm, >90% inhibition; triplicate
Description: as §3

Rhodotorula sp. = assay: microbe, parasite or virus in culture; format: cell-based; conditions: potato dextrose broth with 2% glucose, room temperature 48 h, OD 600 nm, >90% inhibition; triplicate
Description: as §3

[2] = tested on: Bacillus subtilis (ATCC 23857); conditions: turgencin A data ref Hansen et al. [24]; cited from earlier work
Text: Table 3 Antimicrobial activities of turgencin A and the synthesized StAMP-1–11 peptides. | column: Gram-Pos / Bs

[3] = tested on: Corynebacterium glutamicum (ATCC 13032); conditions: turgencin A data ref Hansen et al. [24]; cited from earlier work
Text: Table 3 Antimicrobial activities of turgencin A and the synthesized StAMP-1–11 peptides. | column: Gram-Pos / Cg

[4] = tested on: Staphylococcus aureus (ATCC 9144); conditions: turgencin A data ref Hansen et al. [24]; cited from earlier work
Text: Table 3 Antimicrobial activities of turgencin A and the synthesized StAMP-1–11 peptides. | column: Gram-Pos / Sa

[5] = tested on: Escherichia coli (ATCC 25922); conditions: turgencin A data ref Hansen et al. [24]; cited from earlier work
Text: Table 3 Antimicrobial activities of turgencin A and the synthesized StAMP-1–11 peptides. | column: Gram-Neg / Ec

[6] = tested on: Pseudomonas aeruginosa (ATCC 27853); conditions: turgencin A data ref Hansen et al. [24]; cited from earlier work
Text: Table 3 Antimicrobial activities of turgencin A and the synthesized StAMP-1–11 peptides. | column: Gram-Neg / Pa

SMILES: CSCC[C@@H]1NC(=O)[C@H](CCCCN)NC(=O)[C@@H](NC(=O)[C@H](C)NC(=O)[C@H](C)NC(=O)[C@H](CCCCN)NC(=O)[C@@H](NC(=O)[C@H](CCCCN)NC(=O)[C@@H]2CCCN2C(=O)CN)[C@@H](C)O)CSSC[C@@H](C(=O)N[C@@H](CC(=O)O)C(=O)N[C@@H](C)C(=O)N[C@H](C(N)=O)C(C)C)NC(=O)CNC(=O)[C@H](CC(C)C)NC(=O)[C@H](CCC(=O)O)NC(=O)[C@@H]2CSSC[C@H](NC(=O)[C@H](C)NC1=O)C(=O)N[C@@H](CCCCN)C(=O)N[C@@H](CC(C)C)C(=O)N[C@@H](C)C(=O)N[C@@H]([C@@H](C)O)C(=O)N[C@H]1CSSC[C@H](NC(=O)[C@H](CCCCN)NC(=O)[C@H](Cc3c[nH]c4ccccc34)NC(=O)CNC(=O)CNC(=O)[C@@H]3CCCN3C(=O)[C@H](CCCCN)NC(=O)[C@H](CCCCN)NC(=O)CNC1=O)C(=O)N[C@@H](CCCCN)C(=O)N[C@@H](CC(C)C)C(=O)N2 [Turgencin A] (H-GPKTKAACKMACKLATCGKKPGGWKCKLCELGCDAV-NH2; disulfide 8-33, 12-29, 17-26; N-terminus assumed)
- Antimicrobial Activity (MIC) Bm (Bacillus megaterium): 0.5 µg/mL
- Antimicrobial Activity (MIC) Ml (Micrococcus luteus): 8.0 µg/mL
- Antimicrobial Activity (MIC) Ap (Aureobasidium pullulans): 92.6 µg/mL
- Antimicrobial Activity (MIC) Ca [1]: 46.3 µg/mL
- Antimicrobial Activity (MIC) Rh (Rhodotorula sp.): 23.2 µg/mL
- Antimicrobial Activity (MIC) Bs [2]: 1.5 µg/mL
- Antimicrobial Activity (MIC) Cg [3]: 1.5 µg/mL
- Antimicrobial Activity (MIC) Sa [4]: 23.3 µg/mL
- Antimicrobial Activity (MIC) Ec [5]: 3.0 µg/mL
- Antimicrobial Activity (MIC) Pa [6]: 5.9 µg/mL
